Legend:
[1] = biological target: His6-TEV-PDGFRβ (557-1016) (Homo sapiens (Human), UniProt P09619); test: PDGFRβ HTRF Assay; assay type: biochemical; settings: read-out: PDGFR HTRF IC50
How it was run: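 Human PDGFRβ (557-1016) pre-incubated with compound for 30 min at RT in pH 7.5 HEPES/MgCl2/EGTA/Brij-35/DTT buffer. Reaction started with ATP and TK-biotin peptide, run 3 h at RT, then quenched with EDTA-containing Eu-cryptate antibody/streptavidin-XL665. HTRF 665/620 nm ratio read after 60 min; percent inhibition relative to DMSO and 10 μM imatinib controls.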

[2] = biological target: Tb-labeled inactive PDGFRβ (Homo sapiens (Human), UniProt P09619); test: PDGFRβ LanthaScreen Assay; assay type: binding; settings: read-out: PDGFR Lantha IC50
Sequence of Tb-labeled inactive PDGFRβ (P09619 33-1106): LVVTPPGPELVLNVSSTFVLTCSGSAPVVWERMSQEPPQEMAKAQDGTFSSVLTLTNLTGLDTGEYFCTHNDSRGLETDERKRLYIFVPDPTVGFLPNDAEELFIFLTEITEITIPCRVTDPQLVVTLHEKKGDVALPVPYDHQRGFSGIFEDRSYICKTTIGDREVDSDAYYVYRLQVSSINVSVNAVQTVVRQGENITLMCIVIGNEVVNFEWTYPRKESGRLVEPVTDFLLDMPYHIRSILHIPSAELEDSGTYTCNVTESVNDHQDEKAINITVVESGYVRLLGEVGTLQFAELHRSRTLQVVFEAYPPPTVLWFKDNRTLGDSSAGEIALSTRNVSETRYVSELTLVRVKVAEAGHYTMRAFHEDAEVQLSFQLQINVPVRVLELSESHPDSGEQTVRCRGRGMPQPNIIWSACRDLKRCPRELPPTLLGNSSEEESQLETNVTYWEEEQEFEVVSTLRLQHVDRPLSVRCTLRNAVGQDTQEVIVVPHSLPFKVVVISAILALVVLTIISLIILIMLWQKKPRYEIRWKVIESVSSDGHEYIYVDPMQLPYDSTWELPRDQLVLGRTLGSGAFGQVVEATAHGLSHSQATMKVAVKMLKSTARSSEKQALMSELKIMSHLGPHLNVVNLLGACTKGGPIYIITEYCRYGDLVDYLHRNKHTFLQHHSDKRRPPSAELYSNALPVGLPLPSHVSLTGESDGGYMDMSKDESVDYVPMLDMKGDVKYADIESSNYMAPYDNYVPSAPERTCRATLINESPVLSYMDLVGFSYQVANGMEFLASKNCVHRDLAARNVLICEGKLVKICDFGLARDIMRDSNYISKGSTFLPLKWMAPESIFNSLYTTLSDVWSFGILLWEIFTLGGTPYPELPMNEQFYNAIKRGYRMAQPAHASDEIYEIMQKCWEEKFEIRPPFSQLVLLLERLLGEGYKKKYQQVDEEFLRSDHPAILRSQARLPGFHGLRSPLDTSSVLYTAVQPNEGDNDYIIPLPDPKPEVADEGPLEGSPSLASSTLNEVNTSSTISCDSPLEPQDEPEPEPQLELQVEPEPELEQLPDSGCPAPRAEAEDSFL

Sequence of His6-TEV-PDGFRβ (557-1016) (P09619 557-1016): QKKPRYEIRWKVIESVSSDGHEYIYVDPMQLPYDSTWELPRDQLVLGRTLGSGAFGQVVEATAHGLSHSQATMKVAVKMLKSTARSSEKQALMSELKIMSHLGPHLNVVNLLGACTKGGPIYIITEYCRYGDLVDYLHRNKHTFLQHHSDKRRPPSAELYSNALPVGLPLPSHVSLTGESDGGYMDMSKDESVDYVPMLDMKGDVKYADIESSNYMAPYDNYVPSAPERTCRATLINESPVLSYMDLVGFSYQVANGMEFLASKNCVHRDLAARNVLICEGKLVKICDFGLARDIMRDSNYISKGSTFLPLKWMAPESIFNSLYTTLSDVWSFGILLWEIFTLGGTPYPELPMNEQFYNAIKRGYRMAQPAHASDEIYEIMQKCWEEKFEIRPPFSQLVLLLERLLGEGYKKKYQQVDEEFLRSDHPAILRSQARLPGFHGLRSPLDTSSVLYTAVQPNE

Row | SMILES | IC50 [1] | IC50 [2]
1 | Cc1ncc(C(=O)NCCN2CCCC23CCC3)cc1NC(=O)c1cnn2cc(-c3cnn4c3CCC4)sc12 [Example 461, N-(5-((2-(5-azaspiro[3.4]octan-5-yl)ethyl)carbamoyl)-2-methylpyridin-3-yl)-2-(5,6-dihydro-4H-pyrrolo[1,2-b]pyrazol-3-yl)pyrazolo[5,1-b]thiazole-7-carboxamide] | 0.2 nM | 0.8 nM
2 | Cc1ncc(NC(=O)CN2CCC3(CC3)C2)cc1NC(=O)c1cnn2cc(-c3cnn4c3COCC4)sc12 [Example 474, N-(5-(2-(5-azaspiro[2.4]heptan-5-yl)acetamido)-2-methylpyridin-3-yl)-2-(6,7-dihydro-4H-pyrazolo[5,1-c][1,4]oxazin-3-yl)pyrazolo[5,1-b]thiazole-7-carboxamide] | 0.2 nM | 1.7 nM
3 | COCCn1cc(-c2cn3ncc(C(=O)Nc4cc(NC(=O)CCC5CCCN5C(C)C)cnc4C)c3s2)cn1 (centres unmarked) [Example 463, N-(5-(3-(1-isopropylpyrrolidin-2-yl)propanamido)-2-methylpyridin-3-yl)-2-(1-(2-methoxyethyl)-1H-pyrazol-4-yl)pyrazolo[5,1-b]thiazole-7-carboxamide] | 0.7 nM | 11 nM
4 | Cc1ncc(NC(=O)NCCN2CCCC2(C)C)cc1NC(=O)c1cnn2cc(-c3cnn(C)c3)sc12 [Example 38, N-(5-(3-(2-(2,2-dimethylpyrrolidin-1-yl)ethyl)ureido)-2-methyl-pyridin-3-yl)-2-(1-methyl-1H-pyrazol-4-yl)pyrazolo[5,1-b]thiazole-7-carboxamide] | 1.8 nM | 33.5 nM
5 | Cc1cc(C(=O)NCCN2CCCC2(C)C)sc1NC(=O)c1cnn2cc(-c3cccnc3)sc12 [Example 36, N-(5-((2-(2,2-dimethylpyrrolidin-1-yl)ethyl)carbamoyl)-3-methylthiophen-2-yl)-2-(pyridin-3-yl)pyrazolo[5,1-b]thiazole-7-carboxamide] | 0.5 nM | 19.3 nM
6 | Cc1ncc(NC(=O)CN2CC3(CCCCO3)C2)cc1NC(=O)c1cnn2cc(-c3cnn4c3OCCC4)sc12 [Example 423, N-(5-(2-(5-oxa-2-azaspiro[3.5]nonan-2-yl)acetamido)-2-methylpyridin-3-yl)-2-(6,7-dihydro-5H-pyrazolo[5,1-b][1,3]oxazin-3-yl)pyrazolo[5,1-b]thiazole-7-carboxamide] | 0.4 nM | 3.7 nM
7 | Cc1ncc(NC(=O)CN2CC(C)(C)C2)cc1NC(=O)c1cnn2cc(-c3cccnc3OC(F)(F)F)sc12 [Example 437, N-(5-(2-(3,3-dimethylazetidin-1-yl)acetamido)-2-methylpyridin-3-yl)-2-(2-(trifluoromethoxy)pyridin-3-yl)pyrazolo[5,1-b]thiazole-7-carboxamide] | 0.4 nM | 4.6 nM
8 | Cc1ncc(NC(=O)CN2CCCC2(C)C)cc1NC(=O)c1cnn2cc(-c3cnn(C(C)(C)CO)c3)sc12 [Example 457, N-(5-(2-(2,2-dimethylpyrrolidin-1-yl)acetamido)-2-methylpyridin-3-yl)-2-(1-(1-hydroxy-2-methylpropan-2-yl)-1H-pyrazol-4-yl)pyrazolo[5,1-b]thiazole-7-carboxamide] | 0.4 nM | 3.4 nM
9 | Cc1ncc(NC(=O)CN2CCC23CCC3)cc1NC(=O)c1cnn2cc(-c3cnn4c3COCC4)sc12 [Example 475, N-(5-(2-(1-azaspiro[3.3]heptan-1-yl)acetamido)-2-methylpyridin-3-yl)-2-(6,7-dihydro-4H-pyrazolo[5,1-c][1,4]oxazin-3-yl)pyrazolo[5,1-b]thiazole-7-carboxamide] | 0.2 nM | 1.4 nM
10 | Cc1ncc(NC(=O)CN2CC(C)(C)C2)cc1NC(=O)c1cnn2cc(-c3cnn(CCS(C)(=O)=O)c3)sc12 [Example 435, N-(5-(2-(3,3-Dimethylazetidin-1-yl)acetamido)-2-methylpyridin-3-yl)-2-(1-(2-(methylsulfonyl)ethyl)-1H-pyrazol-4-yl)pyrazolo[5,1-b]thiazole-7-carboxamide] | 0.6 nM | 6.8 nM
11 | Cc1ncc(NC(=O)CN2CC(C)(C)C2)cc1NC(=O)c1cnn2cc(-c3cnn4c3CCC4)sc12 [Example 409, 2-(5,6-dihydro-4H-pyrrolo[1,2-b]pyrazol-3-yl)-N-(5-(2-(3,3-dimethylazetidin-1-yl)acetamido)-2-methylpyridin-3-yl)pyrazolo[5,1-b]thiazole-7-carboxamide] | 0.2 nM | 1.3 nM
12 | Cc1ncc(NC(=O)CN2CCCCC2)cc1NC(=O)c1cnn2cc(-c3cnn4c3OCCC4)sc12 [Example 419, 2-(6,7-dihydro-5H-pyrazolo[5,1-b][1,3]oxazin-3-yl)-N-(2-methyl-5-(2-(piperidin-1-yl)acetamido)pyridin-3-yl)pyrazolo[5,1-b]thiazole-7-carboxamide] | 0.3 nM | 2.8 nM
13 | Cc1ncc(NC(=O)CN2CCCC[C@@H]2C)cc1NC(=O)c1cnn2cc(-c3cnn(CCO)c3)sc12 [Example 34, (S)-2-(1-(2-hydroxyethyl)-1H-pyrazol-4-yl)-N-(2-methyl-5-(2-(2-methyl-piperidin-1-yl)acetamido)pyridin-3-yl)pyrazolo[5,1-b]thiazole-7-carboxamide] | 1.7 nM | 13.4 nM

Source: patent US20240109917A1 (ACTELION PHARMACEUTICALS LTD, priority 2020, published 2024)
